In patent US10189853B2, “Conformationally restricted 4-substituted-2,6-dimethylfuro[2,3-d]pyrimidines as anti-tumor agents” (DUQUESNE UNIVERSITY OF THE HOLY SPIRIT, priority 2014, dated 2019):
Each block holds one molecule with its values, some of them ahead of it.

Assays:
NCI-H460 = assay: NCI 60 cell line panel; type: cell-based; settings: Homo sapiens, NSCLC
MDA-MB-435 = assay: NCI 60 cell line panel; type: cell-based; settings: Homo sapiens, Melanoma
MOLT-4 = assay: NCI 60 cell line panel; type: cell-based; settings: Homo sapiens, Leukemia
HS 578T = assay: NCI 60 cell line panel; type: cell-based; settings: Homo sapiens, Breast Cancer
EGFR = EGFR (Homo sapiens (Human), UniProt P00533); assay: EGFR kinase inhibition, phosphotyrosine ELISA cytoblot; type: cell-based; settings: A431 cells
EGFR, sequence (P00533 25-1210): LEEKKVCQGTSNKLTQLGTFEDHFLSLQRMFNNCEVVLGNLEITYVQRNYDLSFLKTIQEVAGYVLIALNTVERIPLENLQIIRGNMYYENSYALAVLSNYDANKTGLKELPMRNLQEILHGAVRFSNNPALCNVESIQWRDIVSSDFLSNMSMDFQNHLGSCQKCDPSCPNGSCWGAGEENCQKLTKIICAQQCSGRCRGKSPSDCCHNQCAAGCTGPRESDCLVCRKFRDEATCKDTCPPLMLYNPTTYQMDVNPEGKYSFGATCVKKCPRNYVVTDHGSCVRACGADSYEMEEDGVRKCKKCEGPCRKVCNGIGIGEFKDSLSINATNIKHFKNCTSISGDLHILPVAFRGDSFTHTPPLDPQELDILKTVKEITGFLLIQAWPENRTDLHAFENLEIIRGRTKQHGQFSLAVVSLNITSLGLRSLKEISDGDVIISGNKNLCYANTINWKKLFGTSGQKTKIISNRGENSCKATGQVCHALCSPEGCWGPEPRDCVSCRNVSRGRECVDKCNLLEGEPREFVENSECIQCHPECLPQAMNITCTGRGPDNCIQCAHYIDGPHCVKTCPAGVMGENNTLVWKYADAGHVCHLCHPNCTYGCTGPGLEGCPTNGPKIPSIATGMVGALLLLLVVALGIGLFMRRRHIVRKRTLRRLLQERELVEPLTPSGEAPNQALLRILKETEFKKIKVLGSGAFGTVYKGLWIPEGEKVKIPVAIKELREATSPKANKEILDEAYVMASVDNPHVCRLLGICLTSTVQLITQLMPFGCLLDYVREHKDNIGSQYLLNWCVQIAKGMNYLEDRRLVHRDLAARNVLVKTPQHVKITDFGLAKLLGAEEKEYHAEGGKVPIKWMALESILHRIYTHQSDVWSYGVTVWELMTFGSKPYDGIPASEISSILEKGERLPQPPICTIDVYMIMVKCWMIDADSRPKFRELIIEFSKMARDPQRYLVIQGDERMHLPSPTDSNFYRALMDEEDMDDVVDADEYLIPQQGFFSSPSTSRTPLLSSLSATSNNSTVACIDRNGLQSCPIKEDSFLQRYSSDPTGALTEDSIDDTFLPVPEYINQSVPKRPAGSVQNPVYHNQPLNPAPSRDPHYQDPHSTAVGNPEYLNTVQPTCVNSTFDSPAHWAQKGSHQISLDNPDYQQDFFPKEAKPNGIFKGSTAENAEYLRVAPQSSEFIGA

RXF 393 = assay: NCI 60 cell line panel; type: cell-based; settings: Homo sapiens, Renal Cancer
HOP-92 = assay: NCI 60 cell line panel; type: cell-based; settings: Homo sapiens, NSCLC
HCC-2998 = assay: NCI 60 cell line panel; type: cell-based; settings: Homo sapiens, Colon Cancer
SF-295 = assay: NCI 60 cell line panel; type: cell-based; settings: Homo sapiens, CNS Cancer
A431 cancer cells = assay: A431 cytotoxicity (cell proliferation); type: cell-based, human; settings: Homo sapiens, A-431
SKOV3 cells = assay: Antiproliferative SRB assay; type: cell-based; settings: Homo sapiens, SK-OV-3, 48 h, read-out: IC50 ± SD in SKOV3 cells
MDA-435 cells = assay: Antiproliferative SRB assay; type: cell-based; settings: MDA435, 48 h, read-out: IC50 ± SD in MDA-435 cells
OVCAR-5 = assay: NCI 60 cell line panel; type: cell-based; settings: Homo sapiens, Ovarian cancer
HT29 = assay: NCI 60 cell line panel; type: cell-based; settings: Homo sapiens, HT-29, Colon Cancer
SF-268 = assay: NCI 60 cell line panel; type: cell-based; settings: Homo sapiens, CNS Cancer
HeLa cells = assay: Antiproliferative SRB assay; type: cell-based; settings: Homo sapiens, HeLa, 48 h, read-out: IC50 ± SD in HeLa
SNB-19 = assay: NCI 60 cell line panel; type: cell-based; settings: Homo sapiens, CNS Cancer
IGROV1 = assay: NCI 60 cell line panel; type: cell-based; settings: Homo sapiens, IGROV-1, Ovarian cancer
SF-539 = assay: NCI 60 cell line panel; type: cell-based; settings: Homo sapiens, CNS Cancer
786-0 = assay: NCI 60 cell line panel; type: cell-based; settings: Homo sapiens
OVCAR-4 = assay: NCI 60 cell line panel; type: cell-based; settings: Homo sapiens, Ovarian cancer
K-562 = assay: NCI 60 cell line panel; type: cell-based; settings: Homo sapiens, K562, Leukemia
DU-145 = assay: NCI 60 cell line panel; type: cell-based; settings: Homo sapiens, Prostate Cancer
VEGFR-2 = VEGFR-2 (Homo sapiens (Human), UniProt P35968); assay: VEGFR-2 kinase inhibition, phosphotyrosine ELISA cytoblot; type: cell-based; settings: for IC50: U251 cells, phosphotyrosine ELISA
VEGFR-2, sequence (P35968 20-1356): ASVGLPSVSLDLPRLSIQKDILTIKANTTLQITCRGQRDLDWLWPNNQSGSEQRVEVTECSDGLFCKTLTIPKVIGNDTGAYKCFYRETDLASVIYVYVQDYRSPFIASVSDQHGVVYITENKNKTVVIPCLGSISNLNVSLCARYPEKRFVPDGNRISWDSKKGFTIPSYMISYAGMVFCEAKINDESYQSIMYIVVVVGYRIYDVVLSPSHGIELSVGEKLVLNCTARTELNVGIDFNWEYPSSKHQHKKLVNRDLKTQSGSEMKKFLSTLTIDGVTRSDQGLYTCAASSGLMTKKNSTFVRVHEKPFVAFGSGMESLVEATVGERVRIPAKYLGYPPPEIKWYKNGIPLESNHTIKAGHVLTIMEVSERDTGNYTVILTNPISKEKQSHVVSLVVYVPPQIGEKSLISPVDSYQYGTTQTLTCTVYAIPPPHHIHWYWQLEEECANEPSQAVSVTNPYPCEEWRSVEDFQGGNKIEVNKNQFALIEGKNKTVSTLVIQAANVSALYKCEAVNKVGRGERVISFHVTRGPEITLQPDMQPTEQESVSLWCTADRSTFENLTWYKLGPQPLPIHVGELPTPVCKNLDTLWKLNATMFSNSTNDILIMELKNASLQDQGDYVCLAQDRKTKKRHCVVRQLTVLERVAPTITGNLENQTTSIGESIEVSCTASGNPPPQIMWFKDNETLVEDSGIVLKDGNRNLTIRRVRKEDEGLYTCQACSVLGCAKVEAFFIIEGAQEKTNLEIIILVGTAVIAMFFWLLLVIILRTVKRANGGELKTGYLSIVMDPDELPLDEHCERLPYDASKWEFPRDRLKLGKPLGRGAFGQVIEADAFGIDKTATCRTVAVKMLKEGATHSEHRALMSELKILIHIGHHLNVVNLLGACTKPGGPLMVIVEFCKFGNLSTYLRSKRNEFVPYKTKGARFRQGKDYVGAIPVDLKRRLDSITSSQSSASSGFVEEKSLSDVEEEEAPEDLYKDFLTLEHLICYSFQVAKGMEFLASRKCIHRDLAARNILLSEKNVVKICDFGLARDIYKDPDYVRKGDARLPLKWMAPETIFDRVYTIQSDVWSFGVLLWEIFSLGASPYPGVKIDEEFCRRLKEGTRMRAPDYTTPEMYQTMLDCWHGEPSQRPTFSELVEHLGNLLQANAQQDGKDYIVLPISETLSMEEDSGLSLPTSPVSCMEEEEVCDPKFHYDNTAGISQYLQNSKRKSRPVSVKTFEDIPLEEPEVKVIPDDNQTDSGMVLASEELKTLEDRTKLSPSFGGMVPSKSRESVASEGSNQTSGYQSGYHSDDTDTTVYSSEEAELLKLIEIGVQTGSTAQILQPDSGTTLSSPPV

OVCAR-8 = assay: NCI 60 cell line panel; type: cell-based; settings: Homo sapiens, Ovarian cancer
[1] = tested on: cellular microtubules in A-10 cells; assay: Microtubule depolymerization, indirect immunofluorescence; type: cell-based; settings: for effect on cellular microtubules: in words
COLO 205 = assay: NCI 60 cell line panel; type: cell-based; settings: Homo sapiens, Colon Cancer
NCI-H522 = assay: NCI 60 cell line panel; type: cell-based; settings: Homo sapiens, NSCLC
HOP-62 = assay: NCI 60 cell line panel; type: cell-based; settings: Homo sapiens, NSCLC
UACC-62 = assay: NCI 60 cell line panel; type: cell-based; settings: Homo sapiens, Melanoma
LOX IMVI = assay: NCI 60 cell line panel; type: cell-based; settings: Homo sapiens, Melanoma
NCI-H226 = assay: NCI 60 cell line panel; type: cell-based; settings: Homo sapiens, NSCLC
MCF7 = assay: NCI 60 cell line panel; type: cell-based; settings: Homo sapiens, Breast Cancer
ACHN = assay: NCI 60 cell line panel; type: cell-based; settings: Homo sapiens, Renal Cancer
CCRF-CEM = assay: NCI 60 cell line panel; type: cell-based; settings: Homo sapiens, Leukemia
SN 12C = assay: NCI 60 cell line panel; type: cell-based; settings: Homo sapiens, SN12C, Renal Cancer
EKVX = assay: NCI 60 cell line panel; type: cell-based; settings: Homo sapiens, NSCLC
OVCAR-3 = assay: NCI 60 cell line panel; type: cell-based; settings: Homo sapiens, Ovarian cancer
SW-620 = assay: NCI 60 cell line panel; type: cell-based; settings: Homo sapiens, Colon Cancer
SK-MEL-5 = assay: NCI 60 cell line panel; type: cell-based; settings: Homo sapiens, Melanoma
PC-3 = assay: NCI 60 cell line panel; type: cell-based; settings: Homo sapiens, Prostate Cancer
SK-OV-3 = assay: NCI 60 cell line panel; type: cell-based; settings: Homo sapiens, Ovarian cancer
HL-60(TB) = assay: NCI 60 cell line panel; type: cell-based; settings: Homo sapiens, Leukemia
M14 = assay: NCI 60 cell line panel; type: cell-based; settings: Homo sapiens, Melanoma
SNB-75 = assay: NCI 60 cell line panel; type: cell-based; settings: Homo sapiens, CNS Cancer
[2] = tested on: WTβ3 cells (HeLa overexpressing βIII tubulin); assay: Antiproliferative SRB assay; type: cell-based; settings: for IC50: Homo sapiens, HeLa, SRB, 48 h, read-out: IC50 ± SD in WTβ3
MDA-MB-468 = assay: NCI 60 cell line panel; type: cell-based; settings: Homo sapiens, Breast Cancer
SK-MEL-2 = assay: NCI 60 cell line panel; type: cell-based; settings: Homo sapiens
NCI-H23 = assay: NCI 60 cell line panel; type: cell-based; settings: Homo sapiens, NSCLC

- IC50 (EGFR): 0.307 ± 0.0421 µM
- IC50 (SKOV3 cells): 0.425 ± 0.0531 µM
- IC50 (HeLa cells): 0.302 ± 0.0234 µM
- IC50 (VEGFR-2): 0.0058 ± 0.00073 µM
- fold better than sunitinib, VEGFR-2 (VEGFR-2; vs sunitinib): 3 fold
- EC50/IC50 ratio ([1]; EC50 MT depolymerization / IC50 MDA-435): 28
- IC50 [2]: 0.243 ± 0.0151 µM
Compound: Cc1nc(N(C)c2ccc3occc3c2)c2cc(C)oc2n1 [Compound 7, N-1-benzofuran-5-yl-N,2,6-trimethylfuro[2,3-d]pyrimidin-4-amine]
- GI50 (NCI-H460): 0.138 µM
- GI50 (MDA-MB-435): 0.0211 µM
- GI50 (MOLT-4): 0.211 µM
- GI50 (HS 578T): 0.0517 µM
- GI50 (RXF 393): 0.0572 µM
- GI50 (HOP-92): 0.226 µM
- GI50 (HCC-2998): 0.185 µM
- GI50 (SF-295): 0.0417 µM
- IC50 (A431 cancer cells): 0.0732 ± 0.0101 µM
- IC50 (MDA-435 cells): 0.133 ± 0.0017 µM
- GI50 (OVCAR-5): 0.531 µM
- GI50 (HT29): 0.0519 µM
- GI50 (SF-268): 0.527 µM
- GI50 (SNB-19): 0.0936 µM
- GI50 (IGROV1): 0.142 µM
- GI50 (SF-539): 0.0609 µM
- GI50 (786-0): 1.04 µM
- GI50 (OVCAR-4): 0.553 µM
- GI50 (K-562): 0.0404 µM
- GI50 (DU-145): 0.198 µM
- GI50 (OVCAR-8): 0.33 µM
- effect on cellular microtubules [1]: dose-dependent loss of cellular microtubules
- GI50 (COLO 205): 0.139 µM
- GI50 (NCI-H522): 0.0299 µM
- GI50 (HOP-62): 0.0752 µM
- GI50 (UACC-62): 0.0571 µM
- GI50 (LOX IMVI): 0.162 µM
- GI50 (NCI-H226): 0.217 µM
- GI50 (MCF7): 0.0438 µM
- GI50 (ACHN): 0.265 µM
- GI50 (CCRF-CEM): 0.121 µM
- GI50 (SN 12C): 0.611 µM
- GI50 (EKVX): 0.396 µM
- GI50 (OVCAR-3): 0.03 µM
- GI50 (SW-620): 0.0588 µM
- GI50 (SK-MEL-5): 0.0504 µM
- GI50 (PC-3): 0.183 µM
- GI50 (SK-OV-3): 0.098 µM
- GI50 (HL-60(TB)): 0.0412 µM
- GI50 (M14): 0.0473 µM
- GI50 (SNB-75): 0.103 µM
- Rr value (relative resistance) ([2]; WTβ3 vs HeLa): 0.8
- GI50 (MDA-MB-468): 0.0315 µM
- GI50 (SK-MEL-2): 0.0824 µM
- GI50 (NCI-H23): 0.206 µM

- IC50 (EGFR): 0.0034 ± 0.0008 µM
- IC50 (SKOV3 cells): 0.0129 ± 0.0012 µM
- IC50 (HeLa cells): 0.0135 ± 0.0005 µM
- IC50 (VEGFR-2): 0.0332 ± 0.005 µM
- EC50 ([1]; A-10 cells, 18 h, read-out: EC50 for MT depolymerization in A-10 cells): 0.021 µM
- IC50 [2]: 0.0091 ± 0.0018 µM
Compound: COc1ccc2c(c1)CCCN2c1nc(C)nc2oc(C)cc12 [Compound 10, 4-(6-methoxy-3,4-dihydroquinolin-1(2H)-yl)-2,6-dimethylfuro[2,3-d]pyrimidine]
- GI50 (NCI-H460): < 0.01 µM
- GI50 (MDA-MB-435): < 0.01 µM
- GI50 (MOLT-4): 0.015 µM
- GI50 (HS 578T): < 0.01 µM
- GI50 (RXF 393): < 0.01 µM
- GI50 (HOP-92): 0.0586 µM
- GI50 (HCC-2998): 0.012 µM
- GI50 (SF-295): < 0.01 µM
- IC50 (A431 cancer cells): 0.018 ± 0.0029 µM
- IC50 (MDA-435 cells): 0.0098 ± 0.0009 µM
- GI50 (OVCAR-5): 0.043 µM
- GI50 (HT29): < 0.01 µM
- GI50 (SF-268): 0.0168 µM
- GI50 (SNB-19): < 0.01 µM
- GI50 (IGROV1): < 0.01 µM
- GI50 (SF-539): < 0.01 µM
- GI50 (786-0): < 0.01 µM
- GI50 (OVCAR-4): 0.051 µM
- GI50 (K-562): < 0.01 µM
- GI50 (DU-145): < 0.01 µM
- GI50 (OVCAR-8): < 0.01 µM
- effect on cellular microtubules [1]: dose-dependent loss of cellular microtubules
- GI50 (COLO 205): < 0.01 µM
- GI50 (NCI-H522): < 0.01 µM
- GI50 (HOP-62): < 0.01 µM
- GI50 (UACC-62): < 0.01 µM
- GI50 (LOX IMVI): < 0.01 µM
- GI50 (NCI-H226): 0.013 µM
- GI50 (MCF7): < 0.01 µM
- GI50 (ACHN): < 0.01 µM
- GI50 (CCRF-CEM): < 0.01 µM
- GI50 (SN 12C): < 0.01 µM
- GI50 (EKVX): < 0.01 µM
- GI50 (OVCAR-3): < 0.01 µM
- GI50 (SW-620): < 0.01 µM
- GI50 (SK-MEL-5): < 0.01 µM
- GI50 (PC-3): < 0.01 µM
- GI50 (SK-OV-3): < 0.01 µM
- GI50 (HL-60(TB)): < 0.01 µM
- GI50 (M14): < 0.01 µM
- GI50 (SNB-75): < 0.01 µM
- GI50 (MDA-MB-468): < 0.01 µM
- GI50 (SK-MEL-2): < 0.01 µM
- GI50 (NCI-H23): < 0.01 µM
